System: HT-29 cells
Test: Comet assay (single cell gel electrophoresis), genotoxic potential
Type: cell-based, Human
Settings: concentration corresponding to quercetin 70 µM

For `O=c1c(O)c(-c2ccc(O)c(O)c2)oc2cc(O)cc(O)c12` [quercetin], the “genotoxic effect / DNA integrity” value was “genotoxic effect”.
